Earlier results on one molecule are cited in patent US9352019B2, “Using heat shock proteins to improve the therapeutic benefit of a non-vaccine treatment modality” (University of Connecticut Health Center, priority 2002, dated 2016).

Molecules are shown by their SMILES. Where a name gives a salt, the structure may show the parent alone.

The subject of the series is CML. Conditions: Gleevec alone; Druker et al., 2002.

As to `Cc1ccc(NC(=O)c2ccc(CN3CCN(C)CC3)cc2)cc1Nc1nccc(-c2cccnc2)n1` [Gleevec™, imatinib mesylate], the “patients achieving responses using these same criteria” value is given as “less than 10% of patients”.
